Source: PubChem BioAssay AID489041 (Sanford-Burnham Center for Chemical Genomics, 2010)
The source made the active and inactive calls. How the calls were made is not given here.

Test system: HEK-293T NF-kB luciferase reporter counterscreen, luminescence
Assay: inhibitors of HEK-293T NF-kB luciferase – HEK-293T cells, luminescence, counter-screen for T-cell antigen receptor NF-kB inhibitors, dose response (AID 489041)

Structure (SMILES)	IC50
CCCCCn1c2c(c(=N)c3ccccc31)CCC2	1.75 µM
CCCCc1ccc(NC(=O)C(=O)NCCN2CCN(Cc3ccc([N+](=O)[O-])cc3)CC2)cc1	0.4 µM
O=C(N/N=C\c1c(O)ccc2ccccc12)c1cncc(Br)c1	11.2 µM
O=C(O)c1ccc(N/N=C/c2ccc3c(c2)OCO3)cc1	1.72 µM
Cc1c(C(=O)OCC(C)C)[nH]c2c1C(=O)CC(c1cccs1)C2 (stereo not drawn)	0.41 µM
C=CCSc1nc2ccccc2n1C(=O)/C=C/c1cc(OC)c(OC)c(OC)c1	21.2 µM (inactive)
COc1ccccc1CNS(=O)(=O)c1ccc(-c2cnc(C3CC3)o2)cc1	2.6 µM
Cc1ccc(C(=O)c2cc([N+](=O)[O-])ccc2N2CCCCC2)cc1C	6.16 µM
CCCC(=O)NC(c1ccc(OC)cc1)c1ccc2cccnc2c1O (stereo not drawn)	> 80 µM (inactive)
Cc1oc2c(c1C(=O)NCc1cccnc1)C(=O)c1ccccc1C2=O	1.48 µM
O=C(Nc1ccc(N2CCN(C(=O)c3ccc(Cl)cc3)CC2)cc1)c1ccc2c(c1)OCCO2	3.1 µM
CC(=O)O[C@H]1C(=O)[C@]2(C)[C@H]([C@H](OC(=O)c3ccccc3)[C@]3(O)C[C@H](OC(=O)[C@H](O)[C@@H](NC(=O)c4ccccc4)c4ccccc4)C(C)=C1C3(C)C)[C@]1(OC(C)=O)CO[C@@H]1C[C@@H]2O	76.2 µM (inactive)
CCOC(=O)C(C)Oc1cccc2c(=O)n(CC(=O)NCc3ccco3)ccc12 (stereo not drawn)	7.92 µM
CN[C@H]1CCc2cc(OC)c(OC)c(OC)c2-c2ccc(OC)c(=O)cc21	< 0.16 µM
O=C(Nc1ccc(CSc2ccccc2)cc1)c1ccc(CN2CCOCC2)cc1	0.34 µM
COc1cc(-c2noc(C)c2/C=C/c2cccc([N+](=O)[O-])c2)cc(OC)c1OC	9.59 µM
COc1ccc(C(=O)Nc2ccc3[nH]c(-c4cccc(OC)c4)cc(=O)c3c2)cc1	> 80 µM (inactive)
COc1ccc2c(c1)C(=O)N1[C@H]3c4cc(Br)ccc4OC[C@@H]3[C@H](c3ccccc3)[C@]1(C)C(=O)N2	> 80 µM (inactive)
CCCSc1nnc(Sc2nnnn2-c2ccccc2)s1	9.43 µM
CCCCCN1C=CC(=C2C(=O)c3ccccc3C2=O)C=C1	1.9 µM
Cn1c(SC2=CS(=O)(=O)c3ccccc32)nc2ccccc21	12.2 µM
N#C/C(=C\c1ccc(OCc2ccc(C(=O)O)cc2)cc1)C(=O)N1CCOCC1	4.51 µM
Cc1nn(C)c(C)c1CN(Cc1nc(CCC(C)C)no1)C(C)C	11 µM
Cc1ccc(C(=O)c2cc([N+](=O)[O-])ccc2N2CCCCC2)cc1	4.17 µM
O=c1oc2ccccc2cc1-c1cn(-c2ccccc2)c(=S)[nH]1	4.59 µM
O=C1C=C(c2ccc3ncccc3c2)C[C@@H](c2ccc3c(c2)OCO3)C1	11.1 µM

Structure (SMILES)	IC50
O=[N+]([O-])c1ccc(-c2nc(C(Cl)Cl)c3ccccc3n2)cc1	54.5 µM (inactive)
COC(=O)c1cnc(Oc2ccc(NC(=O)NC(=O)c3c(F)cccc3Cl)cc2)cc1C(F)(F)F	25.8 µM (inactive)
Cc1c(C(=O)N2CCOCC2)[nH]c2c1C(=O)CC(c1ccccc1Cl)C2 (stereo not drawn)	13.8 µM
CCOCCOC(=O)c1[nH]c2c(c1C)C(=O)CC(c1ccccc1)C2 (stereo not drawn)	3.05 µM
COc1ccc(NS(=O)(=O)c2ccc(-c3cnc(C4CC4)o3)cc2)cc1OC	1 µM
COc1cccc(N/C(N)=N/c2nc(CSc3ccccn3)cc(=O)[nH]2)c1	5.9 µM
Cc1ccc(O)c(NC(=O)CCC2CCCCC2)c1	> 80 µM (inactive)
CCN(CC)c1ccc2nc3ccccc3[n+](CC)c2c1	2.01 µM
CCc1ccc(N2C(=O)C(Cl)=C(Nc3ccc(C(=O)N4CCCC4)cc3)C2=O)cc1	66.9 µM (inactive)
Cc1noc(C)c1COc1ccc(C(=O)NNC(=O)c2ccccc2F)cc1	30.3 µM (inactive)
CCOC(=O)c1[nH]c2c(c1C)C(=O)CC(c1ccc(F)cc1)C2 (stereo not drawn)	> 80 µM (inactive)
CCCCC(=O)NC(c1ccc(N(C)C)cc1)c1ccc2cccnc2c1O (stereo not drawn)	> 80 µM (inactive)
CCN(CC)c1ccc(NC(=O)c2cc(OC)cc(OC)c2)c(C)c1	6 µM
CC(=O)c1ccc(Oc2cc(C)nc(-n3nc(C)cc3C)n2)cc1	14.6 µM
CCc1ccc(/C=N/NC(=O)c2cc(C3CC3)nc3ccccc23)s1	10.3 µM
O=C(CSc1nnc(Cn2nnc3ccccc32)o1)N(Cc1ccc(F)cc1)c1ccccc1	0.94 µM
CC1(C)CC(N2CCN(C(c3ccccc3)c3ccccc3)CC2)=CC(=[N+]2CCCCC2)C1	1.25 µM
CCOc1cc(C#N)c(NC(=O)c2cccnc2)cc1OCC	37.7 µM (inactive)
Cc1ccc(C(=O)N/N=C/c2ccc([N+](=O)[O-])s2)cc1	4.36 µM
Cc1ccc2cccc(NS(=O)(=O)c3ccccc3)c2n1	> 80 µM (inactive)
Cc1ccc(/C=N/NC(=O)C2COc3ccccc3O2)s1 (stereo not drawn)	51.6 µM (inactive)
CC(=O)N(C)C1=C(N2CCOCC2)C(=O)c2ccccc2C1=O	5.29 µM
CSc1ccc(COC(=O)c2cc([N+](=O)[O-])ccc2N2CCOCC2)cc1	1.7 µM
Cc1csc2ncnc(NC3CCN(Cc4ccccc4)CC3)c12	2.22 µM
CCCCC(=O)NC(c1ccc(Cl)cc1Cl)c1ccc2cccnc2c1O (stereo not drawn)	> 80 µM (inactive)
COc1cccc(N2CCN(C(=O)c3ccc(CS(=O)c4ccccc4C)o3)CC2)c1 (stereo not drawn)	8.21 µM

Structure (SMILES)	IC50
COc1ccc(S(=O)(=O)N2N=C(C)Oc3ccccc3C2=O)cc1	29.9 µM (inactive)
COc1ccc(COC(=O)c2cc([N+](=O)[O-])ccc2N2CCOCC2)cc1F	2.29 µM
Cc1ccc2c(c1)sc(-c1ccc(N(C)C)cc1)[n+]2C	0.87 µM
Cc1nc(NCc2ccco2)c2c(C)c(C)sc2n1	1.82 µM
c1ccc(-c2noc(-c3ccc4c(c3)OCO4)n2)nc1	1.4 µM
C[C@@H]1O[C@@H](O[C@H]2C[C@@H](O)[C@]3(CO)[C@H]4[C@H](O)C[C@]5(C)[C@@H](C6COC(=O)C6)CC[C@]5(O)[C@@H]4CC[C@]3(O)C2)[C@H](O)[C@H](O)[C@H]1O (stereo partly drawn)	0.87 µM
CCN1/C(=C/c2ccc3ccccc3[n+]2CC)C=Cc2ccccc21	1.01 µM
Cc1cc(C)c2nc(C)cc(N/N=C/c3ccc(O)cc3)c2c1	12.9 µM
Cc1cccc(N2CCN(C(=O)c3ccc(CS(=O)(=O)c4ccccc4C)o3)CC2C)c1 (stereo not drawn)	2.34 µM
C=CCn1c(C)cc(C2=NNC(=NCC)SC2)c1C	1.43 µM
Cc1[nH]n(-c2ccccc2)c(=O)c1/C=N/Nc1nncc(-c2ccccc2)n1	0.2 µM
Cc1ccc(/C=N/NC(=O)c2c(C)nc3ccc(Br)cn23)cc1	> 80 µM (inactive)
COc1ccc(CNC(=O)c2c(C)oc3c2C(=O)c2ccccc2C3=O)cc1	2.15 µM
CC(C)Nc1ccc(C(CC(N)=O)NC(=O)Cc2ccc(Br)cc2)cc1[N+](=O)[O-] (stereo not drawn)	68.8 µM (inactive)
COc1cc(/C=C/[N+](=O)[O-])ccc1OCc1cccc(C(=O)O)c1	10.5 µM
COc1cccc(/C=N/Nc2ncnc3scc(-c4ccccc4)c23)c1O	4.6 µM
CCOc1ccc(S(=O)(=O)NCc2ccccn2)cc1NC(=O)c1ccccc1	40.7 µM (inactive)
C=C1C(=O)C=C2CN(C(=O)c3ccccc3)[C@@](Cc3ccc(F)cc3)(C(=O)OC)[C@@H]12	11 µM
COc1ccc(N(C(=O)c2ccccc2C)S(=O)(=O)c2cccs2)cc1	> 80 µM (inactive)
CCCCCCCCn1c2c(c(=N)c3c1CCC3)CCCC2	1.43 µM
O=C(Nc1ccn(Cc2ccccc2F)n1)c1ccc(COc2ccc(Br)cc2)cc1	1.55 µM
COc1cc(C(=O)OCCc2cc3ccccc3c(=O)o2)cc(OC)c1OC	14.9 µM
O=C1C=CCC(/C=C/c2ccccc2)O1 (stereo not drawn)	22.2 µM (inactive)
O=C(c1cn(Cc2ccccc2)nc1-c1ccccc1)N1CCN(c2ccccn2)CC1	> 80 µM (inactive)
Cn1ncc2c(N3CCN(c4ccc(Cl)c(Cl)c4)CC3)ncnc21	1.29 µM
CCCC(=O)NC(c1ccc(N(C)C)cc1)c1ccc2cccnc2c1O (stereo not drawn)	> 80 µM (inactive)

Structure (SMILES)	IC50
COc1ccc(CS(=O)(=O)/C(Cl)=C(/Cl)C(=O)Nc2ccc(OC)nc2)cc1	3.46 µM
COc1cc(C(=O)Nc2ccc3c(c2)CCN3C(C)=O)cc(OC)c1OC	4.83 µM
Cc1c(C(=O)N/N=C/c2ccc(Cl)cc2)[nH]c2ccc(Cl)cc12	1.95 µM
CC1=C([N+](=O)[O-])C(c2ccccc2)C2=C(N1)c1ccccc1C2=O (stereo not drawn)	8.44 µM
CCn1nc(C)c(CNC(=O)c2ccc(OC3CCN(Cc4ccccn4)CC3)cc2)c1C	1.72 µM
Cc1cc(-c2ccc(C(C)C)c(S(=O)(=O)N3CCN(c4ccccc4)CC3)c2)on1	22 µM (inactive)
O=[N+]([O-])c1ccc(O)c(/C=N/Nc2ccc(Cl)nn2)c1	> 80 µM (inactive)
CCOc1ccc(-c2[nH]ncc2-c2ccc(OC)c(OC)c2)c(O)c1	10.4 µM
CNC[C@H](CC1CCCCC1)NC[C@H](Cc1ccccc1)NCCC12CC3CC(CC(C3)C1)C2	25 µM (inactive)
Cc1ccc(C)c(N=Nc2ccc(O)c3ncccc23)c1	21 µM (inactive)
CCOc1ccc2c(c1)sc(N)[n+]2Cc1cc(C)cc2cccnc12	7.7 µM
Cc1ccc(-c2cc3c(N=O)c4ccccc4c-3n[nH]2)cc1	0.88 µM
CCN(c1ccccc1)S(=O)(=O)c1ccc(C(=O)NC2CCN(Cc3ccccc3)CC2)cc1	3.14 µM
Cc1nc(Nc2nc3c(c(=O)[nH]2)CCC3)nc2ccccc12	40.1 µM (inactive)
c1cc2c(cc1C1=NNC(=NC3CC3)SC1)OCCO2	2.33 µM
CCc1ccc(S(=O)(=O)/N=C2\C=C(Nc3ccc(O)cc3)C(=O)c3ccccc32)cc1	1.1 µM
CC(C)(C)C(=O)Nc1ccc(NC(=O)c2ccco2)nc1	0.27 µM
CCCC(=O)Nc1nc2ccc(S(=O)(=O)N3CCCCC3)cc2s1	3.55 µM
COc1ccc2nc(C)cc(N/N=C/c3ccc(F)cc3)c2c1	22.4 µM (inactive)
COc1cc2c(cc1O)CC[C@@H]1[C@@H]2CC[C@]2(C)[C@@H](O)CC[C@@H]12	23 µM (inactive)
Cc1cc(C)c(CN2CCN(C(=O)Cn3cnc4c(OCc5ccccc5)ncnc43)CC2)c(C)c1	2.6 µM
COC(=O)c1ccc2nc(Nc3nc4c(F)cc(F)cc4s3)sc2c1	0.51 µM
COc1ccc(OC)c(C2CC(=O)c3c([nH]c(C(=O)OC(C)C)c3C)C2)c1 (stereo not drawn)	2.29 µM
CC(C)(C)c1cc(C=C(C#N)C#N)cc(C(C)(C)C)c1O	13.1 µM
O=C(c1ccccc1)c1nn(-c2ccc(Cl)cc2)c(=O)cc1C(F)(F)F	5 µM
